The values below come from PubChem BioAssay (NCI).

Among the test systems are IGROV1 ovarian; RPMI-8226 leukemia; MDA-MB-435; UACC-257 melanoma; SW-620 colon; MOLT-4 leukemia; M14 melanoma; SK-MEL-2 melanoma; T-47D breast; NCI-H23 lung.
What all share (assay): DTP human tumour cell line panel, 48 h

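96-well plates; 48 h exposure; 5 concentrations. Endpoints by linear interpolation between flanking doses. Not reached: highest tested concentration assigned. TGI marks complete inhibition of growth.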

As for `CCc1cccc2c3c([nH]c12)-c1ccccc1NC(=O)C3`, the TGI in the assay on IGROV1 ovarian, with RPMI-8226 leukemia, in the assay with MDA-MB-435, in the assay on UACC-257 melanoma, with SW-620 colon and in the assay with MOLT-4 leukemia was over 100 µM in each case. The TGI in the assay with M14 melanoma, in the assay on SK-MEL-2 melanoma, with T-47D breast and in the assay on NCI-H23 lung was over 100 µM in each case.

As to `COc1ccc(-n2c(=O)c3[nH]c(=S)[nH]c3n(-c3ccc(OC)cc3)c2=S)cc1`, the total growth inhibition concentration (TGI) in the assay on IGROV1 ovarian, in the assay on RPMI-8226 leukemia, in the assay on MDA-MB-435, in the assay on UACC-257 melanoma, in the assay on SW-620 colon and in the assay on MOLT-4 leukemia was over 100 µM throughout. For the same molecule, the TGI in the assay on M14 melanoma, in the assay on SK-MEL-2 melanoma, in the assay on T-47D breast and with NCI-H23 lung was over 100 µM each time.

In the case of `COc1ccccc1-n1c(=O)n(C)c(=O)n1C(C)(C)C`, the TGI in the assay with RPMI-8226 leukemia, in the assay on MDA-MB-435, with UACC-257 melanoma, in the assay with SW-620 colon, in the assay on MOLT-4 leukemia and in the assay with M14 melanoma was over 100 µM throughout. The TGI with SK-MEL-2 melanoma, with T-47D breast and with NCI-H23 lung was over 100 µM throughout.

On to `COC(=O)C1=C(OC(=O)/C(=C/c2ccccc2)c2ccc(OC)cc2)C(C(=O)OC)[C@@]2(O)[C@@H](C(=O)OC)[C@H](C)C[C@@H]1[C@@H]2C(=O)OC` (stereo not given in full), for which the TGI in the assay on IGROV1 ovarian, with RPMI-8226 leukemia, with MDA-MB-435, in the assay on UACC-257 melanoma, with SW-620 colon and in the assay with MOLT-4 leukemia was over 100 µM throughout. For the same molecule, the TGI in the assay with M14 melanoma, in the assay with SK-MEL-2 melanoma, in the assay with T-47D breast and in the assay on NCI-H23 lung was over 100 µM throughout.

With `Cc1ccc(S(=O)(=O)N2C[C@@H]3CC[C@]4(CO[Si](C)(C)C(C)(C)C)N[C@@H](c5ccccc5)[C@H]2[C@H]34)cc1`, the TGI (commonly the concentration giving total growth inhibition) is over 100 µM in the assay on IGROV1 ovarian; 46.8 µM with RPMI-8226 leukemia; over 100 µM in the assay with MDA-MB-435; 93.8 µM with UACC-257 melanoma; over 100 µM with SW-620 colon; over 100 µM in the assay on MOLT-4 leukemia. Besides, the concentration for total growth inhibition (TGI) with M14 melanoma was over 100 µM; in the assay on SK-MEL-2 melanoma, over 100 µM; with T-47D breast, 52.6 µM; in the assay with NCI-H23 lung it was over 100 µM.

In the case of `COC(=O)[C@@H]1CS(=O)(=O)C(C(C)C)N1C(C)=O` (stereo not given in full), the TGI in the assay with IGROV1 ovarian, with RPMI-8226 leukemia, in the assay on MDA-MB-435, in the assay with UACC-257 melanoma, in the assay on SW-620 colon and in the assay with M14 melanoma was over 100 µM each time. In addition, the TGI in the assay with SK-MEL-2 melanoma, with T-47D breast and in the assay on NCI-H23 lung was over 100 µM in each case.

As for `COc1ccc(C2C3=C(N=C4SC(C(C)=O)=C(C)N42)c2ccccc2CC3)cc1` (stereo not given), the TGI in the assay with IGROV1 ovarian was over 100 µM; in the assay with RPMI-8226 leukemia, 29.9 µM; in the assay on MDA-MB-435, over 100 µM; in the assay on UACC-257 melanoma, over 100 µM; in the assay on SW-620 colon, over 100 µM; with M14 melanoma, over 100 µM. Also, the TGI with SK-MEL-2 melanoma, in the assay with T-47D breast and with NCI-H23 lung was over 100 µM in each case.

`O=c1[nH]nc(-c2ccccc2)n1/N=C/c1ccc([N+](=O)[O-])o1`: the TGI in the assay with IGROV1 ovarian was 16.9 µM; in the assay on RPMI-8226 leukemia it was 12.8 µM; in the assay with MDA-MB-435, 10.9 µM; with UACC-257 melanoma, 11.9 µM; with SW-620 colon it was 15.2 µM; with MOLT-4 leukemia it was over 47.1 µM. Moreover, the results for the TGI with M14 melanoma, with SK-MEL-2 melanoma and in the assay with T-47D breast were 11.2 µM, 11.6 µM and over 96.4 µM, respectively.

On to `Cc1cc2[nH]c3c(C#N)c(-c4ccccc4)c(N=Nc4ccc(F)cc4)c(=O)n3c2cc1C`, for which the TGI in the assay on RPMI-8226 leukemia, with MDA-MB-435, in the assay on UACC-257 melanoma, with SW-620 colon, in the assay on M14 melanoma and with SK-MEL-2 melanoma was over 100 µM each time. The TGI with T-47D breast and in the assay on NCI-H23 lung was over 100 µM throughout.

As to `Cn1cccc1-c1ccc(-c2ccc(CO)[se]2)[se]1`, the TGI with IGROV1 ovarian is over 100 µM; with RPMI-8226 leukemia, 47.7 µM; with MDA-MB-435 it was 18.7 µM; with SW-620 colon, over 100 µM; in the assay on MOLT-4 leukemia, 71.4 µM; in the assay with M14 melanoma, over 100 µM. Moreover, the results for the total growth inhibition concentration (TGI) with SK-MEL-2 melanoma, in the assay on T-47D breast and in the assay on NCI-H23 lung were over 100 µM, over 83.7 µM and over 90 µM, respectively.

In the case of `CC(C)(C)OC(=O)N/C(C=O)=C\C1CCCCC1`, the TGI in the assay on IGROV1 ovarian is 46 µM; in the assay on MDA-MB-435, 49.5 µM; in the assay on UACC-257 melanoma, 48 µM; in the assay with SW-620 colon, over 100 µM; in the assay on MOLT-4 leukemia, 52 µM; in the assay with M14 melanoma, 30.4 µM. The TGI in the assay with SK-MEL-2 melanoma amounted to 54.9 µM; in the assay with T-47D breast, 84.5 µM; with NCI-H23 lung it was 62 µM.

With `Cc1cc(C)c2c(c1)CC1(Cc3cc(C)c(C)cc3C1=O)C2=O` (stereo not given), the TGI in the assay on IGROV1 ovarian, with RPMI-8226 leukemia, in the assay on MDA-MB-435, in the assay on UACC-257 melanoma, in the assay with SW-620 colon and with MOLT-4 leukemia was over 100 µM in each case. Also, the TGI in the assay with M14 melanoma, in the assay on SK-MEL-2 melanoma and with T-47D breast was over 100 µM in each case.

Regarding `COc1cc2cc(C(=O)N3CC(COS(C)(=O)=O)c4ccc(NC(=O)OCc5ccccc5)cc43)[nH]c2c(OC)c1OC` (stereo not given), the TGI in the assay with IGROV1 ovarian, with MDA-MB-435, with UACC-257 melanoma, in the assay with SW-620 colon, with MOLT-4 leukemia and in the assay with M14 melanoma was over 100 µM each time. Besides, the TGI in the assay on SK-MEL-2 melanoma, in the assay on T-47D breast and with NCI-H23 lung was over 100 µM throughout.
